The values below come from PMC9652956, “The ovipositor cue indole inhibits animal host attraction in Aedes aegypti (Diptera: Culicidae) mosquitoes” (Parasites & Vectors, 2022).

Experiment [1] deals with T1, AaegOR8 (Aedes aegypti (R)-1-octen-3-ol receptor OR8) (Aedes aegypti, UniProt Q16MN0).
T1 construct: gene GPRor8; with AaegOrco
T1 sequence (Q16MN0 1-422): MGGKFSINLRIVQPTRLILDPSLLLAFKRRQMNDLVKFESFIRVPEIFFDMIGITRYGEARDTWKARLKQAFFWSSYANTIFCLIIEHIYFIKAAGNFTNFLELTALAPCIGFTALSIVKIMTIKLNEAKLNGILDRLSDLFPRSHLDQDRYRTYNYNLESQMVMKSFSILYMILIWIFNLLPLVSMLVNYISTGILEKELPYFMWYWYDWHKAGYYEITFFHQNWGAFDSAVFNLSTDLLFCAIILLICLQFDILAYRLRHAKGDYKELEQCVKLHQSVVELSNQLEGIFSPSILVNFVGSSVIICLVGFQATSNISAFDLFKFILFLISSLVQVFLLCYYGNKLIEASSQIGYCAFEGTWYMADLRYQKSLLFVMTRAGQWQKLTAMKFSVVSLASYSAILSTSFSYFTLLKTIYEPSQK
T1 sequence (Q178U6 1-478 partner): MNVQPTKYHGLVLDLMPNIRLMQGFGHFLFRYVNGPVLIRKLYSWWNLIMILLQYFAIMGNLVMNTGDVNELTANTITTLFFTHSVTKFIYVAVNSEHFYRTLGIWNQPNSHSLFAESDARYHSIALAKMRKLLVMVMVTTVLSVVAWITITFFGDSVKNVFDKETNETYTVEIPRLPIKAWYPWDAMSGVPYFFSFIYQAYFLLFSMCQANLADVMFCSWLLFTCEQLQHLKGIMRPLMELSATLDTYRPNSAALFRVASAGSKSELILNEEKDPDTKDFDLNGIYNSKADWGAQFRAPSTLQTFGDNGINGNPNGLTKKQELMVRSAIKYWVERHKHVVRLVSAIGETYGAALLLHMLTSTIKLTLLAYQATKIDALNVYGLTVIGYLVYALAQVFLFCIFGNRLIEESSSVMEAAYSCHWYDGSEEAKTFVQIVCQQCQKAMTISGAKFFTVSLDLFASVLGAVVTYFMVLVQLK
Nature of the experiment: two-electrode voltage clamp, Xenopus oocytes; baseline current shift under […] perfusion versus water-injected oocytes. It counts as cell-based.

Experiment [2] has as its target T1, AaegOR8 (Aedes aegypti (R)-1-octen-3-ol receptor OR8). Nature of the experiment: two-electrode voltage clamp, Xenopus oocytes expressing AaegOR8-Orco; about […] inhibition at […]; not active on Orco alone. It counts as cell-based. The settings on record: read-out: % reduction at 10^-3 M.

As to `CCN(CC)C(=O)c1cccc(C)c1` [DEET], the “two-electrode voltage clamp, Xenopus oocytes; baseline current shift under 0.01” value in experiment [1] is “Indole and insect repellents (DEET, IR3535) increased the baseline current state of AaegOR8-Orco-injected oocytes”.

`CCCCN(CCC(=O)OCC)C(C)=O` [IR3535]: the “two-electrode voltage clamp, Xenopus oocytes; baseline current shift under 0.01” value in experiment [1] was “Indole and insect repellents (DEET, IR3535) increased the baseline current state of AaegOR8-Orco-injected oocytes”.

Turning to `c1ccc2[nH]ccc2c1` [indole], in experiment [2], the inhibition at 1000 µM was ~30%.
